Experimental data from ChEMBL document CHEMBL2321818, “Embellicines A and B: absolute configuration and NF-κB transcriptional inhibitory activity” (J Med Chem, 2013).

How the values were obtained:
K562 [1] = experiment: Cytotoxicity against human K562 cells assessed as cell viability after 72 hrs by trypan blue exclusion assay; type: functional, cell-based; settings: K562, 72 h
K562 [2] = experiment: Cytotoxicity against human K562 cells assessed as cell viability after 24 hrs by trypan blue exclusion assay; type: functional, cell-based; settings: K562, 24 h
K562 [3] = experiment: (§1) Inhibition of TNFalpha-induced NFkappaB activation in human K562 cells incubated for 2 hrs prior to TNFalpha induction measured after 6 hrs by luciferase reporter gene assay; type: cell-based
[4] = as §1; type: cell-based
K562 [5] = experiment: Cytotoxicity against human K562 cells assessed as cell viability after 48 hrs by trypan blue exclusion assay; type: functional, cell-based; settings: K562, 48 h
K562 [6] = experiment: Cytotoxicity against human K562 cells assessed as cell viability after 8 hrs by trypan blue exclusion assay; type: functional, cell-based; settings: K562, 8 h
K562 [7] = experiment: Cytotoxicity against human K562 cells assessed as cell viability by trypan blue exclusion assay; type: functional, cell-based; settings: TDE = time-dependent effect
K562 [8] = experiment: Cytotoxicity against human K562 cells assessed as cell viability after 8 to 72 hrs by trypan blue exclusion assay; type: functional, cell-based
K562 [9] = experiment: Cytotoxicity against human K562 cells assessed as concentration required to inhibit cell proliferation after 120 hrs by Incucyte phase contrast microscopic analysis; type: functional
[10] = Selectivity ratio of IC50 for human PBMC cells to IC50 for human K562 cells; type: cell-based; settings: PBMC cells versus K562 cells, read-out: Ratio IC50
PBMC = experiment: Cytotoxicity against human PBMC cells assessed as cell viability after 24 hrs by trypan blue exclusion assay; type: cell-based
A549 = experiment: Cytotoxicity against human A549 cells assessed as concentration required to inhibition cell proliferation after 120 hrs by Incucyte phase contrast microscopic analysis; type: functional

IC50 [4]	SMILES	IC50 (K562 [1])	IC50 (K562 [2])	inhibition (K562 [3])	IC50 (K562 [5])	IC50 (K562 [6])	Activity (K562 [7])	Activity (K562 [8])	INH (K562 [9])	selectivity ratio [10]	IC50 (PBMC)	INH (A549)
3.04 µM	CC1=C[C@]2(C)C(=C(C)[C@@H]3[C@@H]4C[C@H](C)C[C@H](C)[C@H]4[C@H]4Oc5ccc(cc5)C[C@@]5(O)C=C(C(=O)N5)C(=O)[C@H]2[C@@H]43)[C@@H]1C	1.2 µM	2.85 µM	Dose-dependent effect	1.28 µM	3.47 µM	tde	Dose-dependent effect	–	–	–	–
0.352 µM	CC1=C[C@]2(C)C(=C(C)[C@@H]3[C@@H]4C[C@H](C)C[C@H](C)[C@H]4[C@H]4Oc5ccc(cc5)C[C@]5(O)NC(=O)/C(=C(/O)[C@H]2[C@@H]43)[C@@H]5O)[C@@H]1C	0.21 µM	0.323 µM	Dose-dependent effect	0.25 µM	0.917 µM	tde	Dose-dependent effect	>=0.5 uM	40	12.8 µM	>=0.5 uM
